According to publication PMC9146377, “Design and Synthesis of Novel Bis-Imidazolyl Phenyl Butadiyne Derivatives as HCV NS5A Inhibitors” (Pharmaceuticals, 2022):
pEC50: −log10 of the molar value. Like-named read-outs stand apart in the source and are kept apart here.

Columns and labels:
[1] = test system: subgenomic replicon of HCV GT 2a (strain JFH1); assay: Anti-HCV luciferase assay, genotype 2a replicon in Huh7-JFH1 cells; type: cell-based, Hepatitis C virus; conditions: for pEC50: Huh7-JFH1 cells
Experimental: (§1) Specifically, we determined the activity of 10a against viral replication by measuring luciferase activity in Huh7-JFH1, Huh7.5-3a, and Huh7.5-4a stable cell lines containing subgenomic replicons of HCV GT 2a (strain JFH1), GT 3a (strain S52) and GT 4a (strain ED43), respectively. In addition, the activity of 10a was determined in Huh7-Lunet cells electroporated with the in vitro transcribed full-length reporter viral RNA of HCV genotype 1a (strain H77S.3).
Huh5-2 [65] and Huh7-JFH1 [66] stable cell lines harbor the subgenomic HCV reporter replicon I389luc-ubi-neo/NS3-3′/Con1/5.1 (genotype 1b; strain Con1) and I389luc-ubi-neo/NS3-3′_dg_JFH1 (genotype 2a, JFH1 strain), respectively (kindly provided by R. Bartenschlager, Heidelberg University, Heidelberg, Germany). Huh7.5-3a and Huh7.5-4a stable cell lines harbor the subgenomic HCV reporter replicon S52-SG (Feo) (AII) (genotype 3a; S52 strain) and ED43-SG (Feo) (VYG) (genotype 4a; ED43 strain), respectively (viral constructs kindly provided by C.M. Rice, Rockefeller University, New York, NY, USA). […]
(§2) The anti-HCV assay in replicon cells was performed by seeding 1 × 10^4 cells per well in a 96-well plate. […] Cells were lysed after 72 h, and F-Luc activity was measured. […] At 72 h post-treatment, cell supernatants were collected, and G-Luc activity was measured. In addition, the cells were lysed for total protein quantification.
(§3) Relative luminescence units (RLU) were expressed as a percentage of the respective units derived from DMSO-treated cells (control). […]
(§4) The F-Luc activity was measured using the Luciferase Assay System (Promega, Madison, WI, USA), as recommended by the manufacturer. The G-Luc activity was measured using 12 μM coelenterazine (Promega) in assay buffer (50 mM potassium phosphate, pH 7.4, 500 mM NaCl, 1 mM EDTA). […] The F-Luc activity was normalized to the total protein amount determined using the Bradford assay reagent (Pierce, Waltham, MA, USA).

[2] = Phase I and phase II metabolic stability in human liver S9 fractions; type: in vitro ADME; conditions: LC-MS/MS, read-out: half-life time (t½)
Experimental: This was done using human liver S9 fractions, following the previously reported protocol. A number of samples were taken at defined time points, and using LC-MS/MS, the remaining percentage of the parent compound was determined.

[3] = test system: subgenomic replicon of HCV GT 4a (strain ED43); assay: Anti-HCV luciferase assay, genotype 4a replicon in Huh7.5-4a cells; type: cell-based, Hepatitis C virus
Experimental: as §1, with “H77S.3). […]” for “H77S.3).”
as §2, §3, §4

[4] = Cytotoxicity assay (intracellular ATP levels) in Huh5-2 replicon cells; type: cell-based; conditions: human, Huh5-2 cells, read-out: HCV Replicon 1b CC50

In the case of `COC(=O)N[C@@H](C(=O)N1CCC[C@H]1c1ncc(-c2cccc(C#CC#Cc3cccc(-c4cnc([C@@H]5CCCN5C(=O)[C@H](NC(=O)OC)c5ccccc5)[nH]4)c3)c2)[nH]1)c1ccccc1` [Compound 10a, Dimethyl ((1R,1′R)-((2S,2′S)-((buta-1,3-diyne-1,4-diylbis(3,1-phenylene))bis(1H-imidazole-5,2-diyl))bis(pyrrolidine-2,1-diyl))bis(2-oxo-1-phenylethane-2,1-diyl))dicarbamate], the “Gt2a SI” value [1] was over 3567.61, the pEC50 ([1]; Hepatitis C virus, GT2A) was 7.55 and the pEC50 ([1]; listed as Comp. 10a, read-out: Gt2a EC50) was 7.55. The half-life [2] was over 2 h, the “Gt4a SI” value ([3]; ED43 replicon) was over 1537.52 and the pEC50 ([3]; Hepatitis C virus, GT4A, read-out: Gt4a EC50) was 7.19. For the same compound, the CC50 at 72 h [4] was over 100000 nM.
